Target: T1, recombinant human pancreatic GLK (Homo sapiens, UniProt P35557)
T1 sequence (P35557 1-465): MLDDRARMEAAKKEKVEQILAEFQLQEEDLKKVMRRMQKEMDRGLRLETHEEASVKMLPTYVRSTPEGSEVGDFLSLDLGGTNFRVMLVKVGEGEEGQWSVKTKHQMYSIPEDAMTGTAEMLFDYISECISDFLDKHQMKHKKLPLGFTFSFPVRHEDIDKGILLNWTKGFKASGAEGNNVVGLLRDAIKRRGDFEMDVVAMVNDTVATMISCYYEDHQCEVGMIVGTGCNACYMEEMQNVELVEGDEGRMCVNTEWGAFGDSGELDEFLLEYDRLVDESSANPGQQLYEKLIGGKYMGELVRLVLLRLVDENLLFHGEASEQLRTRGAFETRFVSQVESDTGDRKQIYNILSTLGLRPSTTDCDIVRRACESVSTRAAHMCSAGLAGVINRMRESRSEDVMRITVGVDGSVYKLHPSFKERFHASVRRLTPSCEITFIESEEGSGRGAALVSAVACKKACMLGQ
Experiment: biochemical

**Q.** How did the EC50 turn out when `COC[C@H](C)Oc1cc(OCc2ccccc2)cc(-c2cc3cccnc3[nH]2)c1` [Example 1, 2-[3-(Benzyloxy)-5-[(1S)-2-methoxy-1-methylethoxy]phenyl]-1H-pyrrolo[2,3-b]pyridine] was run?
**A.** 120 nM
